Target: T1, Multidrug resistance protein CDR2 (Candida albicans (strain SC5314 / ATCC MYA-2876), UniProt P78595)
T1 sequence (P78595 whole entry): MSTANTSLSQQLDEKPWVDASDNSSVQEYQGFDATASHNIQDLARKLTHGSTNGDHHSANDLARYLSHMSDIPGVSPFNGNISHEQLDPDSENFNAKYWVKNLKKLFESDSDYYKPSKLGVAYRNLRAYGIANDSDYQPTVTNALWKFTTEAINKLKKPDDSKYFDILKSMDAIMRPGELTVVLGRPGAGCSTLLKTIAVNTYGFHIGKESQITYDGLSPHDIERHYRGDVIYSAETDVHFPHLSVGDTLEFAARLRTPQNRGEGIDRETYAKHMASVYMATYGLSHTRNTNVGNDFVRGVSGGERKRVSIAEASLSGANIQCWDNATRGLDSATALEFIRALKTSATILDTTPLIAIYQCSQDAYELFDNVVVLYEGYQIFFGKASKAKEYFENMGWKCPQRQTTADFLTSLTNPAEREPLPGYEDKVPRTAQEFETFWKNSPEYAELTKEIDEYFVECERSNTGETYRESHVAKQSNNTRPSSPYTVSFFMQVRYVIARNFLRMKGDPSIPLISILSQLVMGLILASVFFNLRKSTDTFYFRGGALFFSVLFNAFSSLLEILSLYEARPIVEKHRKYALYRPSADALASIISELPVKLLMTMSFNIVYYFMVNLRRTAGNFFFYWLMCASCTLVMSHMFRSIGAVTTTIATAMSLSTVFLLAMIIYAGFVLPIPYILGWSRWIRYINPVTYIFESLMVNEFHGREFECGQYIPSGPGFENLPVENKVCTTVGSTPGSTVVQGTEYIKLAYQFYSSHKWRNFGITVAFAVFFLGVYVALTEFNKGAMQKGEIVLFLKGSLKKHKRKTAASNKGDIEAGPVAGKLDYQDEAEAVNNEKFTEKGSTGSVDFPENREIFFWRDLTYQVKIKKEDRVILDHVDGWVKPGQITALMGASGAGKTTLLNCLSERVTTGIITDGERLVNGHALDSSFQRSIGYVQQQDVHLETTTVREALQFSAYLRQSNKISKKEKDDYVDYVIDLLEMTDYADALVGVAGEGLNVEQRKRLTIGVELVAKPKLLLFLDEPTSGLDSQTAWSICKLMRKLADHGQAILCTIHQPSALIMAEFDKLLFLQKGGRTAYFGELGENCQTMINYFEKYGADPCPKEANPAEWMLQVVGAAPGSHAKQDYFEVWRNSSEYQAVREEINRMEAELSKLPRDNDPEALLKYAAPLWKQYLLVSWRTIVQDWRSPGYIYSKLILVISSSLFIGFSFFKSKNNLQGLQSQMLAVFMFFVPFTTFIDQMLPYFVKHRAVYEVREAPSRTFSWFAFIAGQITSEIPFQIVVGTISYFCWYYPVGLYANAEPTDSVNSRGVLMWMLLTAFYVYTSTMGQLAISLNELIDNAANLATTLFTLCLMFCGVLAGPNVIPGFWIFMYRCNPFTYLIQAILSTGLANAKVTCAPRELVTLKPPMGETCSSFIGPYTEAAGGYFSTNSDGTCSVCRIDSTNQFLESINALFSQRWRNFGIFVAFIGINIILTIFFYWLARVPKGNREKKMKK
Test: CaCDR2 efflux pump inhibitors in yeast, dose response, S. cerevisiae AD1-8u, singleplex, Cherry Pick1 hits (AID 588604)

SMILES: O=[N+]([O-])c1cc(CN=Nc2ccccn2)ccc1Cl
- EC50: 9.33 µM

— BindingDB's records for doi:10.7270/Q28C9TSJ (Nmmlsc, 2011)
